Data from the supplement of paper PMC10307832.

Legend:
Assay in all cases: relative viability (nuclei count vs DMSO), 5 days (fraction); higher = more cells survive
AZD1208 + Linsitinib = compound: N[C@@H]1CCCN(c2c(/C=C3\SC(=O)NC3=O)cccc2-c2ccccc2)C1 [AZD1208] + C[C@]1(O)C[C@@H](c2nc(-c3ccc4ccc(-c5ccccc5)nc4c3)c3c(N)nccn32)C1 [Linsitinib] (partner 1 µM)
Outline: (§1)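 Relative viability equals treated-well nuclei counts divided by vehicle-well nuclei counts. Counts came from 4× images of lung cancer cell lines grown in 1536-well plates for 5 days after pin-tool dosing on the day after seeding. Dosing used one drug alone or a fixed anchor-drug dose plus five library-drug doses (not always all listed) in √10 steps, and values are medians of duplicate plates.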

AZD1208 + Olaparib = compound: N[C@@H]1CCCN(c2c(/C=C3\SC(=O)NC3=O)cccc2-c2ccccc2)C1 [AZD1208] + O=C(c1cc(Cc2n[nH]c(=O)c3ccccc23)ccc1F)N1CCN(C(=O)C2CC2)CC1 [Olaparib] (partner 8 µM)
Outline: as §1

AZD1208 + Luminespib = compound: N[C@@H]1CCCN(c2c(/C=C3\SC(=O)NC3=O)cccc2-c2ccccc2)C1 [AZD1208] + CCNC(=O)c1noc(-c2cc(C(C)C)c(O)cc2O)c1-c1ccc(CN2CCOCC2)cc1 [Luminespib] (partner 0.01 µM)
Outline: as §1

XMD14-99 + Vorinostat = compound: CN1CCN(CC1)C2=CC(=C(C=C2)NC3=NC(=C(S3)C(=O)C4=C(C=CC=C4Cl)Cl)N)OC [XMD14-99] + O=C(CCCCCCC(=O)Nc1ccccc1)NO [Vorinostat] (partner 1 µM)
Outline: as §1

Cell Line	relative viability (AZD1208 + Linsitinib; first compound 0.08 µM)	relative viability (AZD1208 + Linsitinib; first compound 0.253 µM)	relative viability (AZD1208 + Linsitinib; first compound 0.8 µM)	relative viability (AZD1208 + Linsitinib; first compound 2.53 µM)	relative viability (AZD1208 + Linsitinib; first compound 8 µM)	relative viability (AZD1208 + Olaparib; first compound 0.08 µM)	relative viability (AZD1208 + Olaparib; first compound 0.253 µM)	relative viability (AZD1208 + Olaparib; first compound 0.8 µM)	relative viability (AZD1208 + Olaparib; first compound 2.53 µM)	relative viability (AZD1208 + Olaparib; first compound 8 µM)	relative viability (AZD1208 + Luminespib; first compound 0.08 µM)	relative viability (AZD1208 + Luminespib; first compound 0.253 µM)	relative viability (AZD1208 + Luminespib; first compound 0.8 µM)	relative viability (AZD1208 + Luminespib; first compound 2.53 µM)	relative viability (AZD1208 + Luminespib; first compound 8 µM)	relative viability (XMD14-99 + Vorinostat; first compound 0.08 µM)	relative viability (XMD14-99 + Vorinostat; first compound 0.8 µM)	relative viability (XMD14-99 + Vorinostat; first compound 2.53 µM)	relative viability (XMD14-99 + Vorinostat; first compound 8 µM)
HARA	0.948	1.02	0.899	0.964	0.877	0.825	0.471	0.646	0.743	0.895	0.558	1.1	0.0617	0.81	0.777	0.537	0.499	0.369	0.397
NCI-H2126	0.678	0.647	0.65	0.633	0.623	0.944	0.917	0.759	0.912	0.828	0.9	0.924	0.848	0.799	0.858	0.694	0.806	0.694	0.579
NCI-H1437	1.03	1.09	0.887	0.832	0.866	0.651	0.648	0.606	0.673	0.676	1.13	1.17	1.2	1.24	1.22	0.797	0.66	0.641	0.382
NCI-H661	0.505	0.568	0.519	0.416	0.483	0.762	0.754	0.728	0.745	0.758	0.977	1.02	0.955	0.939	0.998	0.807	0.768	0.627	0.522
COR-L23	0.84	1.09	0.824	0.825	0.771	0.307	0.354	0.372	0.304	0.321	0.585	0.749	0.529	0.721	0.508	0.409	0.415	0.304	0.181
COR-L 105	0.985	0.884	0.972	0.949	0.939	0.702	0.586	0.661	0.736	0.594	0.728	0.781	0.826	–	0.855	0.833	0.944	0.662	0.663
LK-2	0.43	0.523	0.302	0.263	0.268	0.677	0.736	0.444	0.324	0.353	0.17	0.187	0.2	0.184	0.17	0.364	0.396	0.548	0.462
201T	1.02	1.05	0.989	1.01	0.979	0.876	0.84	0.866	0.868	0.909	1.07	1.02	0.961	1.12	0.98	0.962	0.93	0.948	0.815
HCC-44	0.634	0.676	0.665	0.672	0.593	0.989	0.918	0.999	0.996	0.919	0.996	1.1	0.963	1.04	1.04	1.12	1.1	1.13	1.04
NCI-H647	1.22	1.1	1.06	1.03	1.06	0.504	0.587	0.383	0.531	0.285	0.266	0.16	0.294	0.154	0.146	0.522	0.581	0.648	0.582
H3255	1.02	1.05	0.866	0.973	0.891	0.593	0.611	0.557	0.597	0.569	0.872	0.982	0.698	0.901	0.842	0.756	0.74	0.717	0.591
NCI-H650	0.877	0.83	0.784	0.482	0.71	0.401	0.392	0.388	0.359	0.379	0.865	0.768	0.789	0.757	0.819	0.348	0.455	0.439	0.411
NCI-H2085	0.913	1.04	0.892	0.939	0.946	0.769	0.913	0.79	0.764	0.849	0.439	0.388	0.427	0.461	0.381	0.768	0.788	0.768	0.613
NCI-H2347	0.936	0.94	0.91	0.942	0.909	0.614	0.628	0.518	0.541	0.538	0.416	0.625	0.415	0.371	0.306	0.533	0.598	0.455	0.358
NCI-H1944	1.14	1.19	1.01	0.953	0.82	0.387	0.411	0.361	0.373	0.344	0.765	0.711	0.548	0.557	0.346	0.547	0.586	0.486	0.449
NCI-H1793	0.765	0.804	0.564	0.967	0.583	0.878	0.649	0.767	0.744	0.675	0.181	0.17	0.14	0.176	0.152	0.767	0.916	0.627	0.52
NCI-H596	0.97	1.02	0.975	1.01	0.714	0.706	0.563	0.717	0.632	0.564	0.912	1.19	0.999	1.05	0.79	0.635	0.645	0.794	0.536
